Measured values from patent US20140287024A1, “NANOPARTICLE-BASED DELIVERY SYSTEM WITH OXIDIZED PHOSPHOLIPIDS AS TARGETING LIGANDS FOR THE PREVENTION, DIAGNOSIS AND TREATMENT OF ATHEROSCLEROSIS” (priority 2013, published 2014).

What was measured:
macrophage CD36 = macrophage CD36 (Homo sapiens, UniProt P16671); conditions: cited from earlier work
[1] = system: THP-1 derived macrophages; experiment: EGCG content in THP-1 derived macrophages; type: cell-based, human; conditions: 100 μM
Protocol: Human monocytic THP-1 cell line was purchased from the American Type Tissue Culture Collection (ATCC, Rockville, Md.) and grew in a complete medium according to ATCC instructions. The complete medium consisted of RPMI medium supplemented with 10% fetal bovine serum and 0.05 mM of 2-mercaptoethanol. The cells were incubated in a 5% CO2 atmosphere at 37° C. THP-1 cells were differentiated into macrophages by incubating them with the complete medium containing 50 ng/ml PMA for 72 h.
Macrophages derived from THP-1 cells were treated with 100 μM of NLCE, CSNLCE and native EGCG in the complete medium with or without SOD (5 U/ml). After 2 or 4 h incubation at 4° C. or 37° C., cells were washed three times with ice-cold 1×PBS. The attached cells were scraped by 200 μl of 2% ascorbic acid (pH 3) and each well was washed with 200 μl of methanol, which was then combined with 2% ascorbic acid as a mixture. The volume of mixture was measured and internal standard epicatechin was added into the mixture. After one cycle of freezing and thawing, mixtures were sonicated for 2 min in an ice-cold bath using a sonicator (Branson, Inc.). The mixture was centrifuged at 10,000×g for 20 min at 4° C. The clear supernatant solution was collected and injected into the HPLC system. Precipitates were washed with 0.5 ml of deionized water to get rid of acid and dried in the chemical hood overnight. The dried cells were digested by 0.5 N NaOH. Total cellular protein levels were determined by using a bicinchoninic acid (BCA) kit (Pierce, Cramlington). Total cellular uptake was expressed as μg of EGCG per mg of protein.

[2] = Stability of EGCG in cell culture medium RPMI1640 at 37° C.; type: physicochemical; conditions: after 1 h incubation
Protocol: To determine the stability in different temperatures, NLCE, CSNLCE and native EGCG containing 100 μM of EGCG were dissolved in 1×PBS solution (pH 7.4) and incubated at 4° C., 22° C. and 37° C. for 14 d, 19 h and 3 h, respectively. To simulate the cell growth, stability was evaluated in the cell culture medium RPMI1640 at 37° C. with or without cells, and with or without superoxide dismutases (SOD, 5 U/ml).

[3] = Stability of NLCE, CSNLCE and native EGCG in PBS at different pH and temperatures (HPLC); type: physicochemical
Protocol: EGCG was detected using a high-performance liquid chromatography (HPLC) system (Waters Corporation, Milford, Mass.) with a UV detector and a ZORBAX SB-C18.5 μm, 150*4.6 mm (Agilent,). The mobile phase was composed of 86% water, 12% acetonitrile, 2% ethyl acetate and 0.043% sulfuric acid, and the flow rate was 1 ml/minute. EGCG was detected at 254 nm.
To determine the stability of NLCE, CSNLCE and native EGCG in a pH range 1-7.4, Hydrochloric acid was added into 200 mM phosphate buffered saline to obtain four different pH solutions (pH=1, 3, 5, 7.4). All samples were then dissolved in these solutions to obtain a final EGCG concentration of 100 μM. The solutions were stored in tightly closed vials and incubated in a 37° C. water bath. EGCG concentrations were measured at 0 h, 0.5 h, 1 h, 1.5 h, 2 h, 2.5 hand 3 h.
[…] To simulate the cell growth, stability was evaluated in the cell culture medium RPMI1640 at 37° C. with or without cells, and with or without superoxide dismutases (SOD, 5 U/ml).

MCF7 breast cancer cells = experiment: Antiproliferative and proapoptotic effects in MCF7 cells; type: cell-based, human; conditions: at 10 μM or lower
Text: The chemopreventive actions exerted by green tea are thought to be due to its major polyphenol, (−)-epigallocatechin-3-gallate (EGCG). However, the low level of stability and bioavailability in the body makes administering EGCG at chemopreventive doses unrealistic. EGCG encapsulated chitosan-coated nanoliposomes (CSLIPO-EGCG) were synthesized, and their antiproliferative and proapoptotic effects in MCF7 breast cancer cells were observed.

[4] = system: cuff-induced evolving atherosclerotic lesion; conditions: apolipoprotein E null mice, daily intraperitoneal 10 mg/kg body weight, after 21 days treatment; cited from earlier work
[5] = system: macrophages and macrophage-derived foam cells; conditions: in vitro; cited from earlier work
[6] = in vitro; cited from earlier work
[7] = cited from earlier work

Chain of macrophage CD36 (P16671 whole entry): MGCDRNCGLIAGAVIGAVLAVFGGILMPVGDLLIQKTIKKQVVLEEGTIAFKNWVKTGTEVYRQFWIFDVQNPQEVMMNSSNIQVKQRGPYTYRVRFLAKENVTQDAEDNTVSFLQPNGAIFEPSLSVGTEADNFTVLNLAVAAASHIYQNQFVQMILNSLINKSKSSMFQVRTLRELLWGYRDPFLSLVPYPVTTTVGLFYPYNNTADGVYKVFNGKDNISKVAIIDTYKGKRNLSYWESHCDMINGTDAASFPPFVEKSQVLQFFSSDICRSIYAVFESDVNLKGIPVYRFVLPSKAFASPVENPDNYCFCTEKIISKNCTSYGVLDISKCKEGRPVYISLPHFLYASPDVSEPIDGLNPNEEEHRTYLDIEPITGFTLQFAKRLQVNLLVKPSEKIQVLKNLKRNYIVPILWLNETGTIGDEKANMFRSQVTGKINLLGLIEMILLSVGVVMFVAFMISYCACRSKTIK

For “5-keto-6-octendioic acid esters of 2-lyso-PC [KOdiA-PC]”, the “binding affinity to macrophage CD36” value (macrophage CD36) is given as “high binding affinity”.
For “1-Palmitoyl-2-(11-carboxy-9-oxoundec-10-enoyl)-sn-glycero-3-phosphatidylcholine [KDdiA-PC]”, the “CD36 binding affinity conferred, relative potency” value (macrophage CD36) is given as “more potently than any hydroperoxy phospholipid species” and the “binding affinity to macrophage CD36” value (macrophage CD36) is given as “high binding affinity”.
In the case of `O=C(O[C@@H]1Cc2c(O)cc(O)cc2O[C@@H]1c1cc(O)c(O)c(O)c1)c1cc(O)c(O)c(O)c1` [EGCG, (−)-epigallocatechin-3-gallate], the “EGCG content in macrophages” value ([1]; complete medium containing 5 U/ml of SOD, 2 h incubation at 37° C.) is reported as 0.098 μg/mg protein, the “EGCG content in THP-1 derived macrophages” value ([1]; complete medium without SOD, 2 h incubation at 37° C.) is reported as 0.031 μg/mg protein and the “EGCG content in macrophages” value ([1]; in the presence of SOD, after 4 h) is reported as 0.109 μg/mg protein. The EGCG left [2] was 3.7%, the EGCG left ([3]; 100 μM, 1×PBS pH 7.4, 37° C., after 3 h) was “completely degraded” and the “stability in acidic pH” value ([3]; 100 μM, pH 1.0 to 5.0, 37° C., 3 h) was “stable”. The “stability in neutral pH” value ([3]; 100 μM, pH 7.4, 37° C., after 3 h) was “not stable and could not be detected”, the EGCG degraded ([3]; 4° C., after 19 hours, same initial concentration) was 91% and the EGCG left ([3]; after incubating for 8 h at 23° C.) was 1.52%. The “order of stability of EGCG at the same pH” value ([3]; in all conditions) was “CSNLCE>NLCE>native EGCG”, the “antiproliferative and proapoptotic effectiveness” value (MCF7 breast cancer cells) was “doesn't have any beneficial effects” and the “reduction of atherosclerotic lesion size” value [4] was 55%. For the same compound, the “apoptosis of macrophages and macrophage-derived foam cells” value [5] was “induce apoptosis”, the “expression and production of inflammatory factors” value [5] was “inhibit” and the “stability in water and physiological fluid” value [6] was “unstable”. The “peak plasma EGCG concentration” value ([7]; after drinking 2 cups of green tea) was 0.15 µM and the absolute oral bioavailability ([7]; after drinking tea containing catechins at 10 mg/kg body weight, humans and research animals) was “about 0.1%”.
